Measured values taken from ChEMBL document CHEMBL5260848, “Recent advancements in the development of bioactive pyrazoline derivatives” (Eur J Med Chem, 2020).
Values after ≈ are worked out from the molar mass of the structure shown. Counter-ions that a name gives are not always drawn.

Tests used:
Carbonic anhydrase 1 = Carbonic anhydrase 1 (Homo sapiens, UniProt P00915)
Carbonic anhydrase 9 = Carbonic anhydrase 9 (Homo sapiens, UniProt Q16790); assay: Inhibition of human CA9
Carbonic anhydrase 12 = Carbonic anhydrase 12 (Homo sapiens, UniProt O43570); assay: Inhibition of human CA12
Carbonic anhydrase 12, sequence (O43570 whole entry): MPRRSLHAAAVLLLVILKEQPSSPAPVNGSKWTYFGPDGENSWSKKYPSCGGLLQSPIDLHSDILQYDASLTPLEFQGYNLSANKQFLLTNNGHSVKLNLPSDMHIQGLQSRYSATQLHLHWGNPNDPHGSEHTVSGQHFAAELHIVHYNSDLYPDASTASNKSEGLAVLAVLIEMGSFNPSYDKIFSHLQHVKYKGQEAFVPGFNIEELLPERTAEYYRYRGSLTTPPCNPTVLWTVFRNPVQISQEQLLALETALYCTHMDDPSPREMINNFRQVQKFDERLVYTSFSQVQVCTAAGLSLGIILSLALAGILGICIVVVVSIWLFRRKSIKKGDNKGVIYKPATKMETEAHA

Carbonic anhydrase 2 = Carbonic anhydrase 2 (Homo sapiens, UniProt P00918)
Escherichia coli = assay: Antibacterial activity against Escherichia coli by agar dilution method; assay type: functional
Pseudomonas aeruginosa = assay: Antibacterial activity against Pseudomonas aeruginosa by agar dilution method; assay type: functional
Staphylococcus aureus [1] = assay: Antibacterial activity against Staphylococcus aureus by agar dilution method; assay type: functional
Bacillus subtilis = assay: Antibacterial activity against Bacillus subtilis by agar dilution method; assay type: functional
[2] = Growth inhibition of human Panel NCI-58 (58 carcinoma cell lines) cells by SRB method; assay type: functional
[3] = Cytotoxicity against human Panel NCI-58 (58 carcinoma cell lines) cells by SRB method; assay type: functional; settings: read-out: LC50 (the source's name)
MCF7 = assay: Cytotoxicity against human MCF7 cells; assay type: functional, cell-based
Aspergillus clavatus = assay: Antifungal activity against Aspergillus clavatus; assay type: functional
Candida albicans [4] = assay: Antifungal activity against Candida albicans; assay type: functional
Aspergillus niger = assay: Antifungal activity against Aspergillus niger; assay type: functional
Mus musculus [5] = organism: Mus musculus; assay: Antidepressant activity in Swiss albino mouse assessed as decrease in immobility time by forced swimming test; assay type: functional
Mus musculus [6] = organism: Mus musculus; assay: Antidepressant activity in Swiss albino mouse assessed as decrease in immobility time by tail suspension test; assay type: functional
[7] = test system: Mycobacterium tuberculosis; assay: microbe, parasite or virus in culture; settings: H37Rv
Acetylcholinesterase [8] = biological target: T1, Acetylcholinesterase (Homo sapiens, UniProt P22303)
T1 sequence (P22303 whole entry): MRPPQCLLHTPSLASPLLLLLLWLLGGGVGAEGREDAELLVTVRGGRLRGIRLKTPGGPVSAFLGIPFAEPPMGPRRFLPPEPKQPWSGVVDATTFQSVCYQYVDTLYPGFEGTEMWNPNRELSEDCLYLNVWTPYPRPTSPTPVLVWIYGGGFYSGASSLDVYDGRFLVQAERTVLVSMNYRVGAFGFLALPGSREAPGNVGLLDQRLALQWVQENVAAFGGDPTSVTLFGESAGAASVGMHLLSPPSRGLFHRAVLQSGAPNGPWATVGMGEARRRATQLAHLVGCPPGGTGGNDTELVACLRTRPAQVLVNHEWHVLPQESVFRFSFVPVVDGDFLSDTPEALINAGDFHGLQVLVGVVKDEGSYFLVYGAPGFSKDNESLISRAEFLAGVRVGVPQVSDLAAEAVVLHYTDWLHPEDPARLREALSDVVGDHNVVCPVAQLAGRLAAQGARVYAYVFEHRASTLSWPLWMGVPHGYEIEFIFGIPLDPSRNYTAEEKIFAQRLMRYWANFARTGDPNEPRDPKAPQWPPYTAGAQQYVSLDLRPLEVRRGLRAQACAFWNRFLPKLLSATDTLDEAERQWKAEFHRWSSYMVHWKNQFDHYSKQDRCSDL

Mus musculus [9] = assay: Antidiabetic activity against albino mouse assessed as reduction in blood glucose level at 0.2 mmol/Kg relative to control; assay type: functional; set-up: scale not given: the % may be the effect or the level left
Acetylcholinesterase [10] = biological target: T1, Acetylcholinesterase; remark: listed apart in the source
Staphylococcus aureus [11] = assay: microbe, parasite or virus in culture
[12] = Cytotoxicity against human Panel NCI-58 (58 carcinoma cell lines) cells; assay type: functional
[13] = test system: Bordetella bronchiseptica; assay: Antibacterial activity against Bordetella bronchiseptica ATCC 4617 by plate dilution method; assay type: functional
Candida albicans [14] = assay: Antifungal activity against Candida albicans assessed as reduction in microbial growth; assay type: functional
Cryptococcus neoformans = assay: Antifungal activity against Cryptococcus neoformans assessed as reduction in microbial growth; assay type: functional
[15] = Antioxidant activity assessed as DPPH radical scavenging activity; assay type: functional
Plasmodium falciparum = assay: Antimalarial activity against chloroquine-sensitive Plasmodium falciparum NF54 measured after 72 hrs by giemsa staining based analysis; assay type: functional, organism-based; settings: NF54, 72 h

Carbonic anhydrase 1, sequence (P00915 whole entry): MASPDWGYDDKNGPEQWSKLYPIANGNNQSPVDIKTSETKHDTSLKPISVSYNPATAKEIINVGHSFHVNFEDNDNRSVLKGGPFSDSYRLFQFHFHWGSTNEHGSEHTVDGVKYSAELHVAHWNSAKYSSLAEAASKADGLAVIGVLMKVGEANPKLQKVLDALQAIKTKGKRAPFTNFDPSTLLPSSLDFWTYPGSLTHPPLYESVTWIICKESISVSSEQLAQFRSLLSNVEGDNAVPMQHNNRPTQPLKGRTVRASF

## NS(=O)(=O)c1ccc(C(=O)N2N=C(c3ccc(F)cc3)CC2c2ccccc2)cc1 (stereo not given)
Carbonic anhydrase 1
  Ki: 87.8 nM
Carbonic anhydrase 9
  Ki: 5.5 nM
Carbonic anhydrase 12
  Ki: 7.1 nM
Carbonic anhydrase 2
  Ki: 31.7 nM

## Oc1ccc(Br)cc1C1=NOC(c2cc3ccccc3n3nnnc23)C1 (stereo not given)
Escherichia coli
  MIC: 25 µg/mL (≈ 60.9 µM)
Pseudomonas aeruginosa
  MIC: 25 µg/mL (≈ 60.9 µM)
Staphylococcus aureus [1]
  MIC: 25 µg/mL (≈ 60.9 µM)
Bacillus subtilis
  MIC: 25 µg/mL (≈ 60.9 µM)

## NS(=O)(=O)c1ccc(C(=O)N2N=C(c3ccc(F)cc3)CC2c2ccc(F)cc2)cc1 (stereo not given)
Carbonic anhydrase 1
  Ki: 87.8 nM
Carbonic anhydrase 9
  Ki: 5.5 nM
Carbonic anhydrase 12
  Ki: 7.1 nM
Carbonic anhydrase 2
  Ki: 31.7 nM

## OCCNc1nc(NCCO)nc(Nc2ccc(C3=NN(c4cc(Cl)cc(Cl)c4)C(c4ccc(Cl)cc4)C3)cc2)n1 (stereo not given)
[2]
  GI50: 569 nM
[3]
  CC50: 5150 nM

## CN1N=C2C(C[C@H]3[C@@H]4CCc5cc(O)ccc5[C@H]4CC[C@]23C)C1c1cccs1 (stereo not given in full)
MCF7
  IC50: 43 nM

## C[C@]12CC[C@@H]3c4ccc(O)cc4CC[C@H]3[C@@H]1CC1C2=NN(c2ccccc2)C1c1cccs1 (stereo not given in full)
MCF7
  IC50: 43 nM

## O=C(c1ccncc1)N1N=C(c2ccc(Br)cc2)CC1c1cc2ccccc2nc1Cl (stereo not given)
Aspergillus clavatus
  MIC: 50 µg/mL (≈ 102 µM)
Candida albicans [4]
  MIC: 12.5 µg/mL (≈ 25.4 µM)
Aspergillus niger
  MIC: 12.5 µg/mL (≈ 25.4 µM)

## Cc1nc(-c2cc(F)cc(F)c2)ccc1C1=NNC(c2c(F)cccc2Cl)C1 (stereo not given)
Mus musculus [5]
  Time: 66.67 s
Mus musculus [6]
  Time: 70.33 s
[7]
  MIC: 12.5 µg/mL (≈ 31.1 µM)

## NS(=O)(=O)c1ccc(C(=O)N2N=C(c3ccccc3)CC2c2ccc(Cl)cc2)cc1 (stereo not given)
Carbonic anhydrase 1
  Ki: 87.8 nM
Carbonic anhydrase 9
  Ki: 5.5 nM
Carbonic anhydrase 2
  Ki: 31.7 nM

## COc1ccc(C2CC(c3ccc(F)cc3)=NN2c2ccc(S(N)(=O)=O)cc2)c(OC)c1 (stereo not given)
Acetylcholinesterase [8]
  Ki: 37.7 nM

## Cc1ccc(C2=NN(c3ccc(S(=O)(=O)NC(=O)NC4CCCCC4)cc3)C(c3ccc(F)cc3)C2)cc1 (stereo not given)
Mus musculus [9]
  Activity: 16%

## Cc1ccc2cc(C3CC(c4cc(Cl)sc4Cl)=NN3)c(Cl)nc2c1 (stereo not given)
Acetylcholinesterase [10]
  IC50: 150 nM

## Cc1ccc2cc(C3CC(c4sccc4Cl)=NN3)c(Cl)nc2c1 (stereo not given)
Acetylcholinesterase [10]
  IC50: 200 nM

## COC(=O)C1N=NN(CC(=O)N2N=C(c3nnn(Cc4ccccc4)c3C)CC2c2cccs2)C1C(=O)OC (stereo not given)
Staphylococcus aureus [11]
  MIC: 3.9 µg/mL (≈ 7.08 µM)

## COc1ccc(C2=NN(C(=O)c3ccc(S(N)(=O)=O)cc3)C(c3ccccc3)C2)c(OC)c1 (stereo not given)
Carbonic anhydrase 1
  Ki: 87.8 nM
Carbonic anhydrase 9
  Ki: 5.5 nM
Carbonic anhydrase 12
  Ki: 7.1 nM
Carbonic anhydrase 2
  Ki: 31.7 nM

## O=C(Nc1ccc(Cl)cc1)NS(=O)(=O)c1ccc(N2N=C(c3ccc(Br)cc3)CC2c2ccc(F)cc2)cc1 (stereo not given)
Mus musculus [9]
  Activity: 16%

## COc1cccc2c1C(=O)c1c(O)c3c(c(O)c1C2=O)C[C@@](O)(C(=O)CO)C[C@@H]3O[C@H]1C[C@H](N)[C@H](O)[C@H](C)O1 [DOXORUBICIN HYDROCHLORIDE]
[12]
  GI50: 20 nM

## COC(=O)C1N=NN(CC(=O)N2N=C(c3nnn(Cc4ccccc4)c3C)CC2c2ccc(OC)cc2)C1C(=O)OC (stereo not given)
Staphylococcus aureus [11]
  MIC: 3.9 µg/mL (≈ 6.79 µM)

## O=c1oc2ccc(I)cc2cc1-c1csc(N2N=C(c3ccccc3F)CC2c2cc3ccccc3nc2Cl)n1 (stereo not given)
[13]
  MIC: 50 µg/mL (≈ 73.6 µM)

## COc1cc(C2CC(c3cccc(Nc4ccnc5cc(Cl)ccc45)c3)=NN2c2ccc(Cl)cc2)cc(OC)c1OC (stereo not given)
Candida albicans [14]
  MIC50: 3.9 µg/mL
Cryptococcus neoformans
  MIC50: 3.9 µg/mL
[12]
  GI50: < 1000 nM

## NS(=O)(=O)c1ccc(C(=O)N2N=C(c3ccccc3)CC2c2ccc(F)cc2)cc1 (stereo not given)
Carbonic anhydrase 1
  Ki: 87.8 nM
Carbonic anhydrase 12
  Ki: 7.1 nM
Carbonic anhydrase 2
  Ki: 31.7 nM

## COc1ccc(C2CC(c3ccc(Br)cc3)=NN2c2ccc(S(N)(=O)=O)cc2)c(OC)c1 (stereo not given)
Acetylcholinesterase [8]
  Ki: 37.7 nM

## O=C(Nc1ccccc1)NS(=O)(=O)c1ccc(N2N=C(c3ccc(Br)cc3)CC2c2ccc(F)cc2)cc1 (stereo not given)
Mus musculus [9]
  Activity: 16%

## NNC(=O)c1ccncc1 [ISONIAZID]
[7]
  MIC: 6.25 µg/mL (≈ 45.6 µM)

## COc1ccc2c(c1)cc(C1CC(c3cc(Br)ccc3O)=NO1)c1nnnn12 (stereo not given)
[15]
  IC50: 26.5 µg/mL (≈ 60.2 µM)

## COc1cc(C2CC(c3ccc(Nc4ccnc5cc(Cl)ccc45)cc3)=NN2c2ccc(Cl)cc2)cc(OC)c1OC (stereo not given)
Candida albicans [14]
  MIC50: 3.9 µg/mL
Cryptococcus neoformans
  MIC50: 3.9 µg/mL
[12]
  GI50: < 1000 nM

## COc1cc(C2CC(c3ccc(Nc4nc(NCCO)nc(NCCO)n4)cc3)=NN2c2cc(Cl)cc(Cl)c2)cc(OC)c1OC (stereo not given)
[2]
  GI50: 569 nM
[3]
  CC50: 5150 nM

## COc1ccc(C2CC(c3ccc(F)cc3)=NN2c2ccc(S(N)(=O)=O)cc2)cc1OC (stereo not given)
Acetylcholinesterase [8]
  Ki: 37.7 nM

## COc1cc(C)c(/C=C/C(=O)c2cc(OC)c(OC)c(OC)c2)cc1C(C)C
Plasmodium falciparum
  IC50: < 2000 nM
